These results are taken from patent US20200022386A1, “METHOD OF PREPARATION OF CA[…]” (PHARCON INC., priority 2018, published 2020).

SMILES strings stand for the structures. Values after ≈ are worked out from the molar mass of the structure shown.

The nature of this series: Solubility of cannabinoids / cannabis extract in ethanol. The format is physicochemical. Conditions: organic solvent or mixture, room temperature, ethyl alcohol (solvent named). The source says: Cannabinoids have extremely low water solubility and relatively high solubility in oils and polar organic solvents such as ethanol and propylene glycol. Micro- and nanoemulsions or liposomal formulations where cannabinoids incorporated into lipid phase of the colloidal dispersion can be efficiently used for preparation of cannabis loaded products. Nevertheless, for preparation of beverages with high content of biologically active cannabis components may be complicated since solubility in the oil phase may not be high enough to provide the desired concentration of cannabinoids in the prepared beverage while keeping the product stable and palatable. Additionally, terpenes presented in extract of cannabis, visibly improve solubility of cannabinoids while pure CBD, THC or other cannabinoids have much lower solubility. […] However, since cannabis terpenes are often associated with acrid and unpleasant taste and flavor, it is preferable to use purified cannabinoids with a potency (purity) of 90-100%.
Practically all proposed SNEDS formulations of cannabinoids have oil phase consisting of food oils, mainly mono-di or triglycerides, such as medium chain triglycerides (MCT oil, coconut oil), fish oil, soy oil, olive oil, acetylated mono-and diglycerides, etc. The food oils have excellent safety profile and can provide a reasonable solubility of cannabinoids. […]

As for `C=C(C)[C@@H]1CCC(C)=C[C@H]1c1c(O)cc(CCCCC)cc1O` [CBD, Cannabidiol], the solubility fell in the range of 25 to 36 mg/mL (≈ 79.5 to 114 mM).
